The numbers were not newly measured in patent US20110059175A9, “ENHANCING SOLUBILITY AND DISSOLUTION RATE OF POORLY SOLUBLE DRUGS” (K.U.LEUVEN RESEARCH AND DEVELOPMENT, priority 2006, published 2011), which cites them from elsewhere.

Usually half-life stands for the time in which the quantity being followed falls by half.

Assay in series [1]: not given
The source holds these as a separate data set.

The conditions of series [2]: determined; Peeters et al., 2002.
Assay in series [3]: not given
This is another data set of the same source.

Converted amounts (≈) assume the structure as drawn. Read-outs that look alike come from different tables or passages of the source. Some results are limits rather than exact numbers.

`NC(=O)N1c2ccccc2C=Cc2ccccc21` [Carbamazepine, 5H-dibenz[b,f]azepine-5-carboxamide]: the “solubility in water” value (water) is recorded as “practically insoluble”.

As to `C#C[C@]1(O)CC[C@H]2[C@@H]3CCC4=Cc5oncc5C[C@]4(C)[C@H]3CC[C@@]21C` [Danazol, 17a-Pregna-2,4-dien-20-yno[2,3-d]-isoxazol-17-ol], in series [1] (administered orally), the “time at which peak concentrations occur” value was at most 2 h. Also, in series [1] (doubling the dose), the “increase in plasma concentration on doubling the dose” value is recorded as 30-40%. In series [1] (in vivo), the half-life is 4 to 5 h.

Take `CCC(C)n1ncn(-c2ccc(N3CCN(c4ccc(OCC5COC(Cn6cncn6)(c6ccc(Cl)cc6Cl)O5)cc4)CC3)cc2)c1=O` (centres unmarked) [Itraconazole]: the “aqueous solubility (S)” value is, setting by setting: (neutral pH) around 0.001 µg/mL (≈ 0.00142 µM); (pH 1) 4 µg/mL (≈ 5.67 µM). For the same compound, the pKa4 in series [2] is on record as 4.0. In addition, the permeability result in series [3] is recorded as “adequate”.
